Test results as given in patent publication US20260085253A1, “LILY OF THE VALLEY ODORANT” (Firmenich SA, priority 2022, published 2026).

Legend:
Aedes aegypti = assay: Warm Body assay: repellent efficacy on mosquitoes; type: in vivo; details: 100 μL on warm body
Experimental: a) Warm Body Assay: Small-Scale Test Used to Screen the Repellent Efficacy on Mosquitoes at Different Concentrations. […] Anopheles gambiae is also a model organism as it is anthropophilic and transmits malaria. The controlling effect according to the present invention was assessed using an adapted Warm Body assay as defined in Kröber T, Kessler S, FreiJ, Bourquin M, Guerin P M. 2010. J Am Mosq Control Assoc. 26:381-386. In this in-vitro assay the number of mosquito landing on a warm body, simulating an attractive host treated with the tested stimuli, was measured in order to assess the repellence effect. The published protocol has been adapted as the switch from Anopheles gambiae to Aedes aegypti led to a decrease of mosquitoes placed in the tested cage due to the size difference (i.e. 30 mosquitoes instead of 50) and to an increase of lighting since Ae. aegypti is a diurnal mosquitoes (i.e. 150 lux instead of 4 lux). On the sandblasted glass Petri dish covering the warm body (28.3 cm^2), 100 μL of the compounds diluted at 5-8 concentrations in ethanol was applied. The number of mosquito landing on the warm body was counted for each stimulus and pure ethanol (solvent) as control. The stimuli tested were stim A (3-(4-isopropyl-2-methylphenyl)propanal at 96%) and stim B (a composition of matter comprising 3-(4-isopropyl-2-methylphenyl)propanal, 3-(2-isopropyl-4-methylphenyl)propanal and 3-(2-methyl-5-propan-2-ylphenyl)propanal at 88%, 5% and 2%, respectively) diluted in ethanol. Five to eight concentrations were assessed on each stimulus, missing data points mentioned as n.d. The mean number of mosquito landings with the solvent only (0 mg/mL) is equal to 64.5±10.1 landings in two minutes.

Ixodes ricinus = assay: Warm Plate assay: repellent efficacy on ticks; type: in vivo; details: for Percentage of repellence of ticks Ixodes ricinus on the warm plate: n = 12, last stage nymphs
Experimental: b) Warm Plate Assay: Small-Scale Test Used to Screen the Repellent Efficacy on Ticks at Different Concentrations.
Repellent efficacy of the different compounds was assessed against the sheep tick, Ixodes ricinus L that can transmit both bacterial and viral pathogens. I. ricinus is one of the recommended model organisms mentioned by the Guidance on the European […] [Vol IL, Efficacy—Assessment & Evaluation (Parts B+C), v6.0, Août 2023]. Observations of repellent efficacy were made on last stage nymphs.
The repellent efficacy was assessed using the protocol of the in-vitro Warm Plate Assay as defined in Kröber T, Bourquin M, Guerin P M. 2013. Pestic. Biochem. Phys. 107(2):160-168.
Ticks had the choice of crossing a zone with 3-(4-isopropyl-2-methylphenyl)propanal (96%) applied or to stay on their refuge without any compound applied. To motivate ticks' movement, the warm plate was heated at 33° C. (to mimic vertebrate skin temperature) and hold in a favourable environment (23° C., 85% RH).
The stimulus tested was stim A (3-(4-isopropyl-2-methylphenyl)propanal at 96%) diluted in ethanol. Twelve different ticks were tested for each of the four concentrations.

## Cc1cc(C(C)C)ccc1CCC=O [Stim A, 3-(4-isopropyl-2-methylphenyl)propanal]
Aedes aegypti; 0.0032 mg/mL in ethanol
  Percentage of repellence of mosquitoes Aedes aegypti landing on the warm body: 20%
Aedes aegypti; 0.016 mg/mL in ethanol
  Percentage of repellence of mosquitoes Aedes aegypti landing on the warm body: 41%
Aedes aegypti; 0.08 mg/mL in ethanol
  Percentage of repellence of mosquitoes Aedes aegypti landing on the warm body: 40%
Aedes aegypti; 0.4 mg/mL in ethanol
  Percentage of repellence of mosquitoes Aedes aegypti landing on the warm body: 63%
Aedes aegypti; 2 mg/mL in ethanol
  Percentage of repellence of mosquitoes Aedes aegypti landing on the warm body: 71%
Aedes aegypti; 10 mg/mL in ethanol
  Percentage of repellence of mosquitoes Aedes aegypti landing on the warm body: 90%
Ixodes ricinus; 0.4 mg/mL in ethanol
  Percentage of repellence of ticks Ixodes ricinus on the warm plate: 25.0%
Ixodes ricinus; 2 mg/mL in ethanol
  Percentage of repellence of ticks Ixodes ricinus on the warm plate: 100.0%
Ixodes ricinus; 10 mg/mL in ethanol
  Percentage of repellence of ticks Ixodes ricinus on the warm plate: 100.0%
Ixodes ricinus; as soon as 0.02% applied on the warm plate
  repellence of ticks Ixodes ricinus on the warm plate (in words): All ticks were repelled
